Converted amounts (≈) assume the structure as drawn. Where two headings read alike, the source gives them in different places. Where a SMILES comes first, the peptide text is derived from it. [ ]: non-standard residue; d: D form. Gly(N(CH2)2(3-indolyl)) = O=C(O)CNCCc1c[nH]c2ccccc12; Nspe = C[C@H](NCC(=O)O)c1ccccc1; Nphe = O=C(O)CNCc1ccccc1; Nlys = NCCCCNCC(=O)O
What was measured:
red blood cells = experiment: Hemolysis assay; type: cell-based, Sprague-Dawley mouse
Outline: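 Peptoid is mixed with 10% (v/v) PBS-washed erythrocytes (male Sprague-Dawley […], 13 weeks) and held 1 h at 37 °C. Hemolysis is calculated from 540 nm absorbance of the supernatant, with PBS as 0% and Triton X-100 as 100%.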

E. coli ATCC25922 = test system: E. coli ATCC25922
Outline: (§1)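 Cation-adjusted MHB2 cultures (18 h, subcultured 4 h) adjusted to 2×10^5–5×10^5 CFU/mL in medium with 0.02% BSA and 0.001% acetic acid.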

S. aureus ATCC 25923 = test system: S. aureus ATCC 25923
Outline: as §1

[1] = Tables 11-13, 24 hours at 37° C., maximum concentration 25 μM
[2] = Table 18, TFA salt vs counter ion-substituted (HCl, AcOH) peptoids

Compound: C[C@@H](c1ccccc1)N(CC(=O)N(CCCCN)CC(=O)N(CCCCN)CC(=O)N(CCc1c[nH]c2ccccc12)CC(=O)N(CCc1c[nH]c2ccccc12)CC(N)=O)C(=O)CN(CCCCN)C(=O)CN(C(=O)CN(C(=O)CN(CCCCN)C(=O)CN(C(=O)CN(C(=O)CNCCCCN)[C@@H](C)c1ccccc1)[C@@H](C)c1ccccc1)[C@@H](C)c1ccccc1)[C@@H](C)c1ccccc1 [Peptoid 28] (H-[Nlys][Nspe][Nspe][Nlys][Nspe][Nspe][Nlys][Nspe][Nlys][Nlys][Gly(N(CH2)2(3-indolyl))][Gly(N(CH2)2(3-indolyl))]-NH2)
- HC10 (red blood cells): >100/>100 μM
- HC50 (red blood cells): >100/>100 μM
- Hmax (100 μM) (red blood cells): 8.9 ± 1.4%
- MIC E. coli ATCC25922 (E. coli ATCC25922; [1]): 12.5 µM (≈ 23.3 µg/mL)
- MIC S. aureus ATCC 25923 (S. aureus ATCC 25923; [1]): 6.3 µM (≈ 11.7 µg/mL)

Compound: C[C@@H](c1ccccc1)N(CC(=O)N(CCCCN)CC(=O)N(CC(=O)N(CC(=O)N(CCCCN)CC(=O)N(CCc1c[nH]c2ccccc12)CC(=O)N(CCc1c[nH]c2ccccc12)CC(N)=O)[C@@H](C)c1ccccc1)[C@@H](C)c1ccccc1)C(=O)CN(CCCCN)C(=O)CN(CCCCN)C(=O)CN(C(=O)CN(C(=O)CNCCCCN)[C@@H](C)c1ccccc1)[C@@H](C)c1ccccc1 [Peptoid 30] (H-[Nlys][Nspe][Nspe][Nlys][Nlys][Nspe][Nlys][Nspe][Nspe][Nlys][Gly(N(CH2)2(3-indolyl))][Gly(N(CH2)2(3-indolyl))]-NH2)
- HC10 (red blood cells): >100/>100 μM
- HC50 (red blood cells): >100/>100 μM
- Hmax (100 μM) (red blood cells): 8.4 ± 0.5%
- MIC E. coli ATCC25922 (E. coli ATCC25922; [1]): 12.5 µM (≈ 23.3 µg/mL)
- MIC S. aureus ATCC 25923 (S. aureus ATCC 25923; [1]): 3.1 µM (≈ 5.78 µg/mL)

Compound: C[C@@H](c1ccccc1)N(CC(=O)N(CCCCN)CC(=O)N(CC(=O)N(CC(=O)N(CCCCN)CC(=O)N(CC(=O)N(CC(=O)N(CCCCN)CC(=O)N(CCc1c[nH]c2ccccc12)CC(=O)N(CCc1c[nH]c2ccccc12)CC(N)=O)[C@@H](C)c1ccccc1)[C@@H](C)c1ccccc1)[C@@H](C)c1ccccc1)[C@@H](C)c1ccccc1)C(=O)CN(CCCCN)C(=O)CNCCCCN [Peptoid 31] (H-[Nlys][Nlys][Nspe][Nlys][Nspe][Nspe][Nlys][Nspe][Nspe][Nlys][Gly(N(CH2)2(3-indolyl))][Gly(N(CH2)2(3-indolyl))]-NH2)
- HC10 (red blood cells): 59.0 µM
- HC50 (red blood cells): > 100 µM
- Hmax (100 μM) (red blood cells): 18.4 ± 5.0%
- MIC E. coli ATCC25922 (E. coli ATCC25922; [1]): 6.3 µM (≈ 11.7 µg/mL)
- MIC S. aureus ATCC 25923 (S. aureus ATCC 25923; [1]): 3.1 µM (≈ 5.78 µg/mL)

Compound: C[C@@H](c1ccccc1)N(CC(N)=O)C(=O)CN(C(=O)CN(CCCCN)C(=O)CN(C(=O)CN(CCCCN)C(=O)CN(CCCCN)C(=O)CN(C(=O)CN(C(=O)CN(CCCCN)C(=O)CN(CCc1c[nH]c2ccccc12)C(=O)CN(CCc1c[nH]c2ccccc12)C(=O)CNCCCCN)[C@@H](C)c1ccccc1)[C@@H](C)c1ccccc1)[C@@H](C)c1ccccc1)[C@@H](C)c1ccccc1 [Peptoid 33]
- HC10 (red blood cells): >100/>100 μM
- HC50 (red blood cells): >100/>100 μM
- Hmax (100 μM) (red blood cells): 5.0 ± 0.2%
- MIC E. coli ATCC25922 (E. coli ATCC25922; [1]): 12.5 µM (≈ 23.3 µg/mL)
- MIC S. aureus ATCC 25923 (S. aureus ATCC 25923; [1]): 3.1 µM (≈ 5.78 µg/mL)

Compound: C[C@@H](c1ccccc1)N(CC(N)=O)C(=O)CN(C(=O)CN(CCCCN)C(=O)CN(C(=O)CN(C(=O)CN(CCCCN)C(=O)CN(C(=O)CN(CCCCN)C(=O)CN(CCCCN)C(=O)CN(CCc1c[nH]c2ccccc12)C(=O)CN(CCc1c[nH]c2ccccc12)C(=O)CNCCCCN)[C@@H](C)c1ccccc1)[C@@H](C)c1ccccc1)[C@@H](C)c1ccccc1)[C@@H](C)c1ccccc1 [Peptoid 34]
- HC10 (red blood cells): >100/>100 μM
- HC50 (red blood cells): >100/>100 μM
- Hmax (100 μM) (red blood cells): 8.5 ± 1.1%
- MIC E. coli ATCC25922 (E. coli ATCC25922; [1]): 25 µM (≈ 46.6 µg/mL)
- MIC S. aureus ATCC 25923 (S. aureus ATCC 25923; [1]): 3.1 µM (≈ 5.78 µg/mL)

Compound: C[C@@H](c1ccccc1)N(CC(=O)N(CCCCN)CC(=O)N(CC(=O)N(CC(=O)N(CCCCN)CC(=O)N(CC(=O)N(CC(=O)N(CCCCN)CC(N)=O)[C@@H](C)c1ccccc1)[C@@H](C)c1ccccc1)[C@@H](C)c1ccccc1)[C@@H](C)c1ccccc1)C(=O)CN(C(=O)CN(CCCCN)C(=O)CN(CCc1c[nH]c2ccccc12)C(=O)CNCCc1c[nH]c2ccccc12)[C@@H](C)c1ccccc1 [Peptoid 37-1] (H-[Gly(N(CH2)2(3-indolyl))][Gly(N(CH2)2(3-indolyl))][Nlys][Nspe][Nspe][Nlys][Nspe][Nspe][Nlys][Nspe][Nspe][Nlys]-NH2)
- HC10 (red blood cells): 14.4 µM
- HC50 (red blood cells): 56.5 µM
- Hmax (100 μM) (red blood cells): 86.6 ± 5.7%
- MIC E. coli ATCC25922 (E. coli ATCC25922; [2]): 6.3 µM
- MIC S. aureus ATCC 25923 (S. aureus ATCC 25923; [2]): 3.1 µM

Compound: C[C@@H](c1ccccc1)N(CC(=O)N(CCCCN)CC(=O)N(CC(=O)N(CC(=O)N(CCCCN)CC(=O)N(CC(=O)N(CC(=O)N(CCCCN)CC(N)=O)[C@@H](C)c1ccccc1)[C@@H](C)c1ccccc1)[C@@H](C)c1ccccc1)[C@@H](C)c1ccccc1)C(=O)CN(C(=O)CN(CCCCN)C(=O)CN(CCc1c[nH]c2ccccc12)C(=O)CNCCc1c[nH]c2ccccc12)[C@@H](C)c1ccccc1 [Peptoid 37-2] (H-[Gly(N(CH2)2(3-indolyl))][Gly(N(CH2)2(3-indolyl))][Nlys][Nspe][Nspe][Nlys][Nspe][Nspe][Nlys][Nspe][Nspe][Nlys]-NH2)
- HC10 (red blood cells): 12.5 µM
- HC50 (red blood cells): 26.0 µM
- Hmax (100 μM) (red blood cells): 98.9 ± 8.0%
- MIC E. coli ATCC25922 (E. coli ATCC25922; [2]): 6.3 µM
- MIC S. aureus ATCC 25923 (S. aureus ATCC 25923; [2]): 1.6 µM

Compound: C[C@@H](c1ccccc1)N(CC(=O)N(CCCCN)CC(=O)N(CCCCN)CC(=O)N(CC(=O)N(CC(=O)N(CCCCN)CC(=O)N(CC(=O)N(CC(=O)N(CCCCN)CC(N)=O)[C@@H](C)c1ccccc1)[C@@H](C)c1ccccc1)[C@@H](C)c1ccccc1)[C@@H](C)c1ccccc1)C(=O)CN(CCCCN)C(=O)CN(CCc1c[nH]c2ccccc12)C(=O)CNCCc1c[nH]c2ccccc12 [Peptoid 38] (H-[Gly(N(CH2)2(3-indolyl))][Gly(N(CH2)2(3-indolyl))][Nlys][Nspe][Nlys][Nlys][Nspe][Nspe][Nlys][Nspe][Nspe][Nlys]-NH2)
- HC10 (red blood cells): >100/>100 μM
- HC50 (red blood cells): >100/>100 μM
- Hmax (100 μM) (red blood cells): 5.9 ± 0.5%
- MIC E. coli ATCC25922 (E. coli ATCC25922; [1]): 12.5 µM (≈ 23.3 µg/mL)
- MIC S. aureus ATCC 25923 (S. aureus ATCC 25923; [1]): 6.3 µM (≈ 11.7 µg/mL)

Compound: C[C@@H](c1ccccc1)N(CC(=O)N(CCCCN)CC(=O)N(CC(=O)N(CC(=O)N(CCCCN)CC(=O)N(CCCCN)CC(=O)N(CC(=O)N(CCCCN)CC(=O)N(CCc1c[nH]c2ccccc12)CC(=O)N(CCc1c[nH]c2ccccc12)CC(N)=O)Cc1ccccc1)[C@@H](C)c1ccccc1)[C@@H](C)c1ccccc1)C(=O)CN(C(=O)CNCCCCN)[C@@H](C)c1ccccc1 [Peptoid 39] (H-[Nlys][Nspe][Nspe][Nlys][Nspe][Nspe][Nlys][Nlys][Nphe][Nlys][Gly(N(CH2)2(3-indolyl))][Gly(N(CH2)2(3-indolyl))]-NH2)
- HC10 (red blood cells): 100/>100 μM
- HC50 (red blood cells): 100/>100 μM
- Hmax (100 μM) (red blood cells): 10.2 ± 0.3%
- MIC E. coli ATCC25922 (E. coli ATCC25922; [1]): 25 µM (≈ 46.3 µg/mL)
- MIC S. aureus ATCC 25923 (S. aureus ATCC 25923; [1]): 6.3 µM (≈ 11.7 µg/mL)

Compound: C[C@@H](c1ccccc1)N(CC(=O)N(CCCCN)CC(=O)N(CCc1c[nH]c2ccccc12)CC(=O)N(CCc1c[nH]c2ccccc12)CC(N)=O)C(=O)CN(CCCCN)C(=O)CN(CCCCN)C(=O)CN(Cc1ccccc1)C(=O)CN(Cc1ccccc1)C(=O)CN(CCCCN)C(=O)CN(C(=O)CN(C(=O)CNCCCCN)[C@@H](C)c1ccccc1)[C@@H](C)c1ccccc1 [Peptoid 40] (H-[Nlys][Nspe][Nspe][Nlys][Nphe][Nphe][Nlys][Nlys][Nspe][Nlys][Gly(N(CH2)2(3-indolyl))][Gly(N(CH2)2(3-indolyl))]-NH2)
- HC10 (red blood cells): >100/>100 μM
- HC50 (red blood cells): >100/>100 μM
- Hmax (100 μM) (red blood cells): 8.9 ± 0.2%
- MIC E. coli ATCC25922 (E. coli ATCC25922; [1]): 12.5 µM (≈ 23 µg/mL)
- MIC S. aureus ATCC 25923 (S. aureus ATCC 25923; [1]): 12.5 µM (≈ 23 µg/mL)

Compound: C[C@@H](c1ccccc1)N(CC(=O)N(CCCCN)CC(=O)N(CCc1c[nH]c2ccccc12)CC(=O)N(CCc1c[nH]c2ccccc12)CC(N)=O)C(=O)CN(CCCCN)C(=O)CN(CCCCN)C(=O)CN(C(=O)CN(C(=O)CN(CCCCN)C(=O)CN(Cc1ccccc1)C(=O)CN(Cc1ccccc1)C(=O)CNCCCCN)[C@@H](C)c1ccccc1)[C@@H](C)c1ccccc1 [Peptoid 41] (H-[Nlys][Nphe][Nphe][Nlys][Nspe][Nspe][Nlys][Nlys][Nspe][Nlys][Gly(N(CH2)2(3-indolyl))][Gly(N(CH2)2(3-indolyl))]-NH2)
- HC10 (red blood cells): >100/>100 μM
- HC50 (red blood cells): >100/>100 μM
- Hmax (100 μM) (red blood cells): 7.1 ± 0.1%
- MIC E. coli ATCC25922 (E. coli ATCC25922; [1]): 25 µM (≈ 45.9 µg/mL)
- MIC S. aureus ATCC 25923 (S. aureus ATCC 25923; [1]): 6.3 µM (≈ 11.6 µg/mL)

Compound: C[C@@H](c1ccccc1)N(CC(=O)N(CCCCN)CC(=O)N(CC(=O)N(CC(=O)N(CCCCN)CC(=O)N(CC(=O)N(CC(=O)N(CCCCN)CC(=O)N(CC(=O)N(CC(N)=O)Cc1ccccc1)Cc1ccccc1)[C@@H](C)c1ccccc1)[C@@H](C)c1ccccc1)[C@@H](C)c1ccccc1)[C@@H](C)c1ccccc1)C(=O)CN(C(=O)CNCCCCN)[C@@H](C)c1ccccc1 [Peptoid 44] (H-[Nlys][Nspe][Nspe][Nlys][Nspe][Nspe][Nlys][Nspe][Nspe][Nlys][Nphe][Nphe]-NH2)
- HC10 (red blood cells): 6.3 µM
- HC50 (red blood cells): 28.6 µM
- Hmax (100 μM) (red blood cells): 97.9 ± 3.7%
- MIC E. coli ATCC25922 (E. coli ATCC25922; [1]): 6.3 µM (≈ 11.3 µg/mL)
- MIC S. aureus ATCC 25923 (S. aureus ATCC 25923; [1]): 1.6 µM (≈ 2.87 µg/mL)

Compound: C[C@@H](c1ccccc1)N(CC(=O)N(CCCCN)CC(=O)N(CC(=O)N(CC(N)=O)Cc1ccccc1)Cc1ccccc1)C(=O)CN(CCCCN)C(=O)CN(CCCCN)C(=O)CN(C(=O)CN(C(=O)CN(CCCCN)C(=O)CN(C(=O)CN(C(=O)CNCCCCN)[C@@H](C)c1ccccc1)[C@@H](C)c1ccccc1)[C@@H](C)c1ccccc1)[C@@H](C)c1ccccc1 [Peptoid 45] (H-[Nlys][Nspe][Nspe][Nlys][Nspe][Nspe][Nlys][Nlys][Nspe][Nlys][Nphe][Nphe]-NH2)
- HC10 (red blood cells): >100/>100 μM
- HC50 (red blood cells): >100/>100 μM
- Hmax (100 μM) (red blood cells): 4.5 ± 0.2%
- MIC E. coli ATCC25922 (E. coli ATCC25922; [1]): >25 µM
- MIC S. aureus ATCC 25923 (S. aureus ATCC 25923; [1]): 25 µM (≈ 44 µg/mL)
